Laboratory results from patent US8030347B2, “Cylopenta[b]benzofuran derivatives and the utilization thereof” (Bayer HealthCare AG, priority 2004, dated 2011).

Experiments:
[1] = test system: Interleukin-8 (IL-8) release from human endothelial cells; assay: Inhibition of interleukin-8 (IL-8) release from human endothelial cells (HUVEC), IL-1β induced, ELISA; assay type: cell-based; conditions: IL-1β 10 ng/ml, 6 h, IL-8 by ELISA, read-out: IC50 (50% inhibition of IL-8 release relative to the maximum effect)
Excerpt: 1.a) Inhibition of Interleukin-8 (IL-8) Release from Human Endothelial Cells
The expression of the human IL-8 gene is controlled by a diversity of regulatory and enhancer elements which are located above the promoter region of the gene. These elements comprise binding sites for transcription factors, and efficient transcription of the IL-8 gene is possible only through the interaction thereof with their DNA binding sites. The activity of the corresponding transcription factors can be induced by various stimuli (e.g. interleukin-1β, tumor necrosis factor-α) and can be modulated by various signal transduction pathways [H. Holtmann et al., Mol. Cell. Biol. 19, 6742-6753 (1999)].
For maximum expression of IL-8, the activity of two different transcription factors is essential: NF-κB and AP-1 [Y.-H. Chang et al., Exp. Cell Res. 278, 166-174 (2000)]. Cytokine-induced IL-8 synthesis can therefore be employed as test system for identifying and characterizing test substances which inhibit directly or indirectly the binding of NF-κB and AP-1 to their DNA binding sites.
Human umbilical cord endothelial cells (HUVEC) were purchased from CellSystems (St. Katharinen, Germany) and cultured in accordance with the supplier's recommendation in EGM-2 medium including growth additions (CellSystems, St. Katharinen, Germany) in 165 cm^2 tissue culture bottles. After the cell lawn has reached 60-80% confluence, the cells are detached from the base of the bottle by trypsin treatment, mechanically dissociated and seeded in a cell density of 5000 cells/well in 96-well microtiter plates (Corning, Wiesbaden, Germany). After 3 days, the culture medium is completely replaced by 170 μl of fresh medium per well. The cells are employed for the experiments on the following day.
To determine the inhibitory effect of the substances according to the invention on IL-8 release, they are firstly dissolved in a concentration ten times higher than the desired final concentration in the test in medium which comprises 1% DMSO. Subsequently, 20 μl of the substance solution are added per well. The formation and release of IL-8 is then induced by adding interleukin-1β (IL-1β, final concentration 10 ng/ml; Biosource GmbH, Solingen, Germany), and the cells are incubated in a CO2 incubator at 37° C. for 6 h. Thereafter, 150 μl of the cell supernatant are removed and frozen at −20° C. until the IL-8 content is measured by ELISA (Biosource GmbH, Solingen, Germany). To carry out the ELISA, the samples are thawed and are diluted 1:10, and the test is carried out in accordance with the manufacturer's instructions. The inhibitory effect of the compounds according to the invention on IL-8 release is ascertained by comparison with vehicle-treated cells.

[2] = Metabolic stability: in vitro incubation with liver microsomes; assay type: in vitro ADME; conditions: Mouse liver microsomes; for CL: calculated from half-life in the incubation mixture; for Fmax: maximum bioavailability calculated from half-life in the incubation mixture
Protocol: In Vitro Incubation with Liver Microsomes:
The hepatic microsomal stability is determined by incubating the substances according to the invention with liver microsomes from various species. The incubation concentration of the substances is kept as low as possible (preferably <1 μM), as is the concentration of the microsomal proteins in the test mixture (preferably 0.2 mg of microsomal protein per ml of incubation mixture). This procedure makes it possible to operate in the linear region of the Michaelis-Menten kinetics for most compounds. A sample is taken from the incubation mixture at various times (seven times in total) to determine the remaining substance concentration. The clearance (CL) and the maximum bioavailability (Fmax) of the test substance is calculated for the respective species from the half-life of the substance in the incubation mixture.
The experiments are carried out as described in detail in J. B. Houston and D. J. Carlile [Drug Metab. Rev. 29, 891-922 (1997)].

H460 cells = assay: In vitro proliferation of tumor cells (CellTiter-Glo); assay type: cell-based; conditions: NCI-H460; H460 human lung carcinoma cells, 24 h after addition of substance
Excerpt: Various types of cancer are characterized by uncontrolled, excessive proliferation of various cell types, leading to the development of metastases and tumors. The possible use of the substances according to the invention for the treatment of hyperproliferative disorders can be investigated by their activity on the cell division rate of tumor cells in vitro. The indicator between antiproliferative effect in vitro and clinical antitumor effect is well established. The therapeutic utilizability of, for example, Taxol [Silvestrini et al., Stem Cells 11, 528-535 (1993)], Taxotere [Bissery et al., Anti Cancer Drugs 6, 339 (1995)] or topoisomerase inhibitors [Edelman et al., Cancer Chemother.
The tumor cell lines such as, for example, MDA-MB-231 cells (human breast adenocarcinoma cells), H460 cells (human lung carcinoma cells) or HCT-15 cells (human colon adenocarcinoma cells) are expanded in appropriate growth media (Sigma, Taufkirchen, Germany) recommended by the supplier (e.g. LGC Promochem, Wesel, Germany). One day before adding the compounds according to the invention, the cells are distributed in a density of 3000 cells/well in 100 μl of growth medium on black 96-well microtiter plates with clear base. On the day of addition of test substance, one microtiter plate for each tumor cell line is used to determine the initial cell count present in the wells. The substances according to the invention, diluted in growth medium and DMSO, are added to the related plates. The test substances are usually added in various concentrations starting with 10 μM final concentration in the assay. The DMSO concentration in the assay is 0.1%. Twenty-four hours after addition of the substance, the cell counts in each well are determined using the CellTiter-Glo® Luminescent Cell Viability-Tests (Promega GmbH, Mannheim, Germany). The test is carried out in accordance with the manufacturer's instructions and evaluated using a luminometer. To ascertain the antiproliferative activity of the compounds according to the invention, the cell counts determined before addition of substance in related plates are subtracted, and the percentage difference of the changes in the cell counts between substance-treated and vehicle-treated cells is determined. The relative activity of the different test substances is determined by a comparison of the concentrations which bring about 50% of their maximum effect (IC50).

Compound	IC50 [1] [nM]	CL [2] [mL/min/kg]	Fmax [2] [%]	IC50 (H460 cells) [nM]
CCOc1cc(OCC)c2c(c1)O[C@@]1(c3ccc(Cl)cc3)[C@H](c3ccccc3)C[C@@H](N)[C@@]21O (racemic) [Example 15, (1R*,3S*,3aR*,8bS*)-1-Amino-3a-(4-chlorophenyl)-6,8-diethoxy-8b-hydroxy-3-phenyl-2,3,3a,8b-tetrahydrocyclopenta[b]benzofuran]	166	<45	>50	
CN(C)CCOc1ccc2c(c1)O[C@@]1(c3ccc(Cl)cc3)[C@H](c3ccccc3)C[C@H](O)[C@@]21O (racemic) [Example 32, (1S*,3S*,3aR*,8bS*)-3a-(4-Chlorophenyl)-6-(2-dimethylaminoethoxy)-3-phenyl-2,3,3a,8b-tetrahydrocyclopenta[b]benzofuran-1,8b-(1H)-diol]	112	<45	>50	0.5
O[C@H]1C[C@@H](c2ccccc2)[C@]2(c3ccc(Cl)cc3)Oc3cccc(OCCN4CCCC4)c3[C@]12O (racemic) [Example 48, (1S*,3S*,3aR*,8bS*)-3a-(4-Chlorophenyl)-3-phenyl-8-(2-pyrrolidin-1-ylethoxy)-2,3,3a,8b-tetrahydrocyclopenta[b]benzofuran-1,8b-(1H)-diol]	214	<45	>50	47.9
CCOc1cc(OCC)c2c(c1)O[C@@]1(c3ccc(-c4ccsc4)cc3)[C@H](c3ccccc3)C[C@@H](O)[C@@]21O (relative stereo) [Example 3, (1R*,3S*,3aR*,8bS*)-6,8-Diethoxy-3-phenyl-2,3,3a,8b-tetrahydro-3a-(4-thiophen-3-ylphenyl)-cyclopenta[b]benzofuran-1,8b-(1H)-diol]	170	<45	>50	
CCOc1cc(OCC)c2c(c1)O[C@@]1(c3ccc(Br)cc3)[C@H](c3ccccc3)[C@@H](C(=O)N(C)C)C(=O)[C@@]21O (relative stereo) [Example 12, (2R*,3S*,3aR*,8bR*)-3a-(4-Bromophenyl)-6,8-diethoxy-2-dimethylcarbamid-8b-hydroxy-3-phenyl-2,3,3a,8b-tetrahydrocyclopenta[b]benzofuran-1-one]	466	49.5	45.1	
COCCOc1cc(OCCOC)c2c(c1)O[C@@]1(c3ccc(Br)cc3)[C@H](c3ccccc3)C[C@@H](O)[C@@]21O (relative stereo) [Example 18, (1R*,3S*,3aR*,8bS*)-6,8-Bis(2-methoxyethoxy)-3a-(4-bromophenyl)-3-phenyl-2,3,3a,8b-tetrahydrocyclopenta[b]benzofuran-1,8b-(1H)-diol]	20	<45	>50	
CN(C)CCOc1cc(OCCN(C)C)c2c(c1)O[C@@]1(c3ccc(Cl)cc3)[C@H](c3ccccc3)C[C@@H](O)[C@@]21O (relative stereo) [Example 21, (1R*,3S*,3aR*,8bS*)-6,8-Bis(2-dimethylaminoethoxy)-3a-(4-chlorophenyl)-3-phenyl-2,3,3a,8b-tetrahydrocyclopenta[b]benzofuran-1,8b-(1H)-diol]				1.5
CN(C)CCOc1cc(OCCN(C)C)c2c(c1)O[C@@]1(c3ccc(Br)cc3)[C@H](c3ccccc3)C[C@H](O)[C@@]21O (relative stereo) [Example 22, (1S*,3S*,3aR*,8bS*)-6,8-Bis(2-dimethylaminoethoxy)-3a-(4-bromophenyl)-3-phenyl-2,3,3a,8b-tetrahydrocyclopenta[b]benzofuran-1,8b-(1H)-diol]	90	<45	>50	
CCOc1ccc2c(c1)O[C@@]1(c3ccc(Cl)cc3)[C@H](c3ccccc3)C[C@H](O)[C@@]21O (relative stereo) [Example 23, (1S*,3S*,3aR*,8bS*)-3a-(4-Chlorophenyl)-6-ethoxy-3-phenyl-2,3,3a,8b-tetrahydrocyclopenta[b]-benzofuran-1,8b-(1H)-diol]	202			99.7
CN(C)CCOc1cccc2c1[C@]1(O)[C@@H](O)C[C@@H](c3ccccc3)[C@]1(c1ccc(Cl)cc1)O2 (relative stereo) [Example 49, (1S*,3S*,3aR*,8bS*)-3a-(4-Chlorophenyl)-8-(2-dimethylaminoethoxy)-3-phenyl-2,3,3a,8b-tetrahydrocyclopenta[b]benzofuran-1,8b-(1H)-diol]				29.7
